One data set addresses T1, RET V804L (Homo sapiens, UniProt P07949, V804L).
T1 construct: purchased Thermofisher PV4397
The experiment in a line: HTRF kinase activity inhibition, RET V804L. The data set is classed as biochemical. Conditions: ATP at Km. The text has this:
(§1) 2.2 Experimental Reagents: • RET enzyme was purchased from Carna Company, and the article number was 08-159; • RET M918T enzyme was purchased from Carna Company, and the article number was 08-508; • KIF5B-RET was purchased from SignalChem Company, the article number was R02-19FG-05; • CCDC6-RET was purchased from SignalChem Company, the article number was R02-19BG-05; • RET V804M enzyme was purchased from Thermofisher Company, and the article number was PV6223; • RET V804L enzyme was purchased from Thermofisher Company, and the article number was PV4397; • HTRF KinEASE-TK kit was purchased from Cisbio Company, and the article number was 62TK0PEC; • ATP was purchased from Thermofisher Company, and the article number was PV3227; • 384-well plate was purchased from PerkinElmer Company, and the article number was 6007290.
(§2) In this experiment, a homogeneous time-resolved fluorescence (HTRF) method was used for the detection of compounds on RET kinase activity.
In general terms: Time-resolved FRET reads energy transfer from a long-lived donor to a nearby acceptor.

Another data set has as its target T2, RET kinase (Homo sapiens, UniProt P07949).
T2 construct: purchased Carna 08-159
The experiment in a line: HTRF kinase activity inhibition, RET wild-type. The format is biochemical. Conditions: ATP at Km. The procedure, abridged: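 HTRF (KinEASE-TK) kinase assay with recombinant RET wild-type, RET V804M, RET V804L and KIF5B-RET enzymes plus ATP.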

A further data set addresses T3, KDR kinase (Homo sapiens, UniProt P35968).
T3 construct: purchased Carna 08-191
Put plainly: HTRF kinase activity inhibition, KDR. The format is biochemical. Conditions: for IC50: HTRF, ATP at Km; for Ratio (KDR/RET): KDR IC50 / RET IC50. The procedure, abridged: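 Inhibition of KDR kinase activity measured by homogeneous time-resolved fluorescence with a tyrosine-kinase KinEASE substrate kit and ATP.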

Data set [1] has as its system TT cells (MTC, RET C634W). Put plainly: Inhibition of proliferation of TT cells (CellTiter-Glo, 72 h). The data set is classed as cell-based. Conditions: Homo sapiens. The procedure, abridged: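 TT cells seeded overnight, then exposed to compound dilutions for 72 h at 37 °C, 5% CO2, with a solvent control. Viability read by CellTiter-Glo luminescence; IC50 from nonlinear regression of inhibition rate versus concentration.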
For orientation: Cellular ATP, detected with luciferase, serves as a proxy for viable cell number.

Data set [2] can be described thus: Balb/C mouse pharmacokinetics, oral 5 mg/kg. Conditions: male, p.o. 5 mg/kg, plasma; for MRT: read-out: Average residence time MRT; for Cmax: read-out: Blood concentration Cmax; for AUC(0-t): read-out: Curve area AUC0-t; for AUC(0-inf): read-out: Curve area AUC0-∞; for half-life: read-out: Half-life t1/2 (converted); for Tmax: read-out: Peak time tmax. The format is in vivo, Balb/C mice. In short, it runs like this: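 Male Balb/C mice (6 per compound) were fasted overnight and dosed in 0.5% CMC-Na (1% Tween80) solution or suspension. EDTA-K2 plasma was sampled at 0, 0.5, 1, 2, 4, 6, 8 and 24 h. Compound levels were measured by LC/MS/MS after acetonitrile precipitation, and PK parameters were derived from the plasma profiles.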

The target in a further data set is T4, CCDC6-RET (Homo sapiens, UniProt P07949).
T4 construct: purchased SignalChem R02-19BG-05; the other entry of the earlier key: CCDC6 (Q16204, Coiled-coil domain-containing protein 6)
T4 sequence (P07949 with tags, fused parts or gaps): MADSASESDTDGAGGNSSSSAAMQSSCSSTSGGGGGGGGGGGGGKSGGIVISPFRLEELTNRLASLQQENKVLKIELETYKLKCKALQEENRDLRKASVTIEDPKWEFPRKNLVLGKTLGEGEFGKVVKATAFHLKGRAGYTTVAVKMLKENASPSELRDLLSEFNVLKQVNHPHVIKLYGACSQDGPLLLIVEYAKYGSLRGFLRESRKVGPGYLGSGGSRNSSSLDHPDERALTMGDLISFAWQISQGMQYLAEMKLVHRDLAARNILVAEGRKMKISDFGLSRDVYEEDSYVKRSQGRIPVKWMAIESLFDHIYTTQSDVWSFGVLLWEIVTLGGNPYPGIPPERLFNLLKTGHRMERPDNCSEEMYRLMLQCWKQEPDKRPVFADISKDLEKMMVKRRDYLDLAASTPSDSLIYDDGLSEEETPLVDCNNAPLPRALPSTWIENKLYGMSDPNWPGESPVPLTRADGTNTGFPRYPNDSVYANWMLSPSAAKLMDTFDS
The experiment in a line: HTRF kinase activity inhibition, CCDC6-RET. The format is biochemical. Conditions: ATP at Km.
Excerpt: as §1, §2

T3 sequence (P35968 20-1356): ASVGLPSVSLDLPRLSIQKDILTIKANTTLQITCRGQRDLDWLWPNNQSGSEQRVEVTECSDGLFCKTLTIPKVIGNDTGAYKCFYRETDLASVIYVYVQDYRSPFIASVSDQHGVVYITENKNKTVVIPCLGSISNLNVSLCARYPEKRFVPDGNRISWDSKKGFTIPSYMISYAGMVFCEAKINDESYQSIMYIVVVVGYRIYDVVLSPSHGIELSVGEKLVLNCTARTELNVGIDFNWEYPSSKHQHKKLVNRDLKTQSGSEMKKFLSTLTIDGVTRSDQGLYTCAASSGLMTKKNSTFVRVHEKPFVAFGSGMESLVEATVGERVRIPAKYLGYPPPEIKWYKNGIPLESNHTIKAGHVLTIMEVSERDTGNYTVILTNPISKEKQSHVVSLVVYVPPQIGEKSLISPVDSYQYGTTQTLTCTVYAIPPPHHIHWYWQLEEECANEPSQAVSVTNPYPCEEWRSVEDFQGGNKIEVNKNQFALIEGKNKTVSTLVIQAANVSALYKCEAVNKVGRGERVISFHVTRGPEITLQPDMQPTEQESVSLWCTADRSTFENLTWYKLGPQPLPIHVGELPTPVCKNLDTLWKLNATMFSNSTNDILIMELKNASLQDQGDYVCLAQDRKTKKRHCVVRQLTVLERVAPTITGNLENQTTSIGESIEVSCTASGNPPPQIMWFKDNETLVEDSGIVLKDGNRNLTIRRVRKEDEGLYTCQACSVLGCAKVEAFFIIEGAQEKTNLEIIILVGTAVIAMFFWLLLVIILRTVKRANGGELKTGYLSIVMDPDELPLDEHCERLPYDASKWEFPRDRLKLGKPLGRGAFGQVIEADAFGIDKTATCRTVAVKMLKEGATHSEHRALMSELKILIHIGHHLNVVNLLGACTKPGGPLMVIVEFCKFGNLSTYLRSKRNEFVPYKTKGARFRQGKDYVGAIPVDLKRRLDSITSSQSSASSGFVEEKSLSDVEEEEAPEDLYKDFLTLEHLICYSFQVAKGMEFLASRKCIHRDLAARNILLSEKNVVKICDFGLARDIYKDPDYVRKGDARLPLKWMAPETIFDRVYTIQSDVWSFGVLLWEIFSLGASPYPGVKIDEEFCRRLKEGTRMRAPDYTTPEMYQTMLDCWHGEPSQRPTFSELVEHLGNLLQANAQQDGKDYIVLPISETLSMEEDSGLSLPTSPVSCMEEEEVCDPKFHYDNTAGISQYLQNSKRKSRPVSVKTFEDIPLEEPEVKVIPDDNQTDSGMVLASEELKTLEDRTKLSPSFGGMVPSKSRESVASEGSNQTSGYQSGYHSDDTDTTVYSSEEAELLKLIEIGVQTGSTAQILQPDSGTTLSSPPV
T2 sequence (P07949 29-1114): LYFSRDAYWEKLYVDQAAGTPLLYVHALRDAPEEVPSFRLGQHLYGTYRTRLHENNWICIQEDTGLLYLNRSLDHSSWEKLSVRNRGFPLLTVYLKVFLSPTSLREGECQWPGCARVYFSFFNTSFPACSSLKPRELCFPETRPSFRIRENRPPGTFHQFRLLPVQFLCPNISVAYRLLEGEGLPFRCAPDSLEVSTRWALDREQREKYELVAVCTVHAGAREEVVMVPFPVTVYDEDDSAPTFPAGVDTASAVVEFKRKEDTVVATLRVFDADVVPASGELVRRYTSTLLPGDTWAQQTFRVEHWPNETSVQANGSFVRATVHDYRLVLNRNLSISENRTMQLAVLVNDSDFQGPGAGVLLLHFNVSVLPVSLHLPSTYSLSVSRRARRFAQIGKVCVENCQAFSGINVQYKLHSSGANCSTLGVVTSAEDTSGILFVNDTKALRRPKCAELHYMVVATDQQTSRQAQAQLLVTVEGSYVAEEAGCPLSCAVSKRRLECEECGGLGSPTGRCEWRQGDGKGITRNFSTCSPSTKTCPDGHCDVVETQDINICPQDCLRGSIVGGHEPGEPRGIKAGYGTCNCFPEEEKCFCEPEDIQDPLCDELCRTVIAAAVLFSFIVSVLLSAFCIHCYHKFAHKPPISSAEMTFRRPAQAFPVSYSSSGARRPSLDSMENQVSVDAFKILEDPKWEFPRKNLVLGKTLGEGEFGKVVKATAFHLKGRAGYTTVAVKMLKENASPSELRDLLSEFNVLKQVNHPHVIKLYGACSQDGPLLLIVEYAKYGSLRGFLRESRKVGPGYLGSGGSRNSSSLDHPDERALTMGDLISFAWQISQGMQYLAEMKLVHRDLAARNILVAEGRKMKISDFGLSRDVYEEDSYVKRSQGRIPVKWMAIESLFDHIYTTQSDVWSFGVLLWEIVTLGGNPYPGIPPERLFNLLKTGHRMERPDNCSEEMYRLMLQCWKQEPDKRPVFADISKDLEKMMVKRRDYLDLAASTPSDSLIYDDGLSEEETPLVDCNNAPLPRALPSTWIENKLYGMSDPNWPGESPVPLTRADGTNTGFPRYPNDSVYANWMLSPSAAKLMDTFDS
T1 sequence (P07949 29-1114 V804L): as the sequence (P07949 29-1114) above, with V776L counted along it

Broadly, the IC50 is the point on the concentration scale where inhibition reaches its midpoint. Usually MRT stands for the average time that molecules of a dose stay in the body. By Tmax is commonly meant the time at which the peak concentration occurs. Compound `COc1ncc(CN2C3CC2CN(c2ccc(-c4cc(C#CC(C)(C)O)cn5ncc(C#N)c45)cn2)C3)cc1F` [Embodiment 18, 4-(6-(6-((5-Fluoro-6-methoxypyridin-3-yl)methyl)-3,6-diazabicyclo[3.1.1]heptan-3-yl)pyridin-3-yl)-6-(3-hydroxy-3-methylbut-1-yn-1-yl)pyrazolo[1,5-a]pyridine-3-carbonitrile] came in with an IC50 against RET V804L of 0.74 nM. For the same compound, half-maximal inhibition against RET kinase (IC50) was put at 0.31 nM. At KDR kinase, the half-inhibitory concentration (IC50) came to 23 nM and the “Ratio (KDR/RET)” value is listed as 73. Also, in data set [1], the half-inhibitory concentration (IC50) was 19 nM. Further, in data set [2], the MRT was 4.61 h, the Cmax came out at 2790 ng/mL, the AUC(0-t) turned out to be 18200 ng·h/mL and the AUC(0-inf) worked out at 18200 ng·h/mL. For the same compound, in data set [2], the half-life was 2.9 h and the Tmax is 0.5 h.

As to `C#C[C@@](C)(O)COc1cc(-c2ccc(N3CC4CC(C3)N4Cc3ccc(OC)nc3)nc2)c2c(C#N)cnn2c1` [Embodiment 63, 6-(((R)-2-hydroxy-2-methylbut-3-yn-1-yl)oxy)-4-(6-(6-((6-methoxypyridin-3-yl)methyl)-3,6-diazabicyclo[3.1.1]heptan-3-yl)pyridin-3-yl)pyrazolo[1,5-a]pyridine-3-carbonitrile], the half-maximal inhibitory concentration (IC50) on CCDC6-RET is 0.85 nM. On RET V804L, this compound registered an IC50 of 0.24 nM. The same compound had an IC50 on RET kinase of 0.34 nM. Moreover, on KDR kinase, half-maximal inhibition (IC50) was put at 21.7 nM and the “Ratio (KDR/RET)” value is reported as 63. Also, the half-maximal inhibitory concentration (IC50) in data set [1] is 14.1 nM. Besides, in data set [2], the MRT came to 2.9 h, the Cmax was 2940 ng/mL, the AUC(0-t) was 11000 ng·h/mL and the AUC(0-inf) amounted to 11000 ng·h/mL. In data set [2], the half-life is 1.3 h and the Tmax turned out to be 1 h.

On to `C#C[C@](C)(O)COc1cc(-c2ccc(N3CC4CC(C3)N4Cc3ccc(OC)nc3)nc2)c2c(C#N)cnn2c1` [Embodiment 64, 6-(((S)-2-hydroxy-2-methylbut-3-yn-1-yl)oxy)-4-(6-(6-((6-methoxypyridin-3-yl)methyl)-3,6-diazabicyclo[3.1.1]heptan-3-yl)pyridin-3-yl)pyrazolo[1,5-a]pyridine-3-carbonitrile], for which it took 1.74 nM to reach half-maximal inhibition at CCDC6-RET (IC50). Moreover, the concentration for half-maximal inhibition (IC50) against RET V804L turned out to be 0.23 nM. At RET kinase, this compound came in with an IC50 of 0.38 nM. At KDR kinase, the half-inhibitory concentration (IC50) stood at 44.3 nM and the “Ratio (KDR/RET)” value turned out to be 118. Besides, the IC50 in data set [1] is 27.8 nM. Moreover, in data set [2], the MRT was found to be 2.7 h, the Cmax turned out to be 3920 ng/mL, the AUC(0-t) was determined as 14500 ng·h/mL and the AUC(0-inf) came out at 14500 ng·h/mL. Further, in data set [2], the half-life was 1.2 h and the Tmax came to 1 h.

`COc1ccc(CN2C3CC2CN(c2ccc(-c4cc(N5CC(C)(C#N)C5)cn5ncc(C#N)c45)cn2)C3)cn1` [Embodiment 77, 6-(3-Cyano-3-methylazetidin-1-yl)-4-(6-(6-((6-methoxypyridin-3-yl)methyl)-3,6-diazabicyclo[3.1.1]heptan-3-yl)pyridin-3-yl)pyrazolo[1,5-a]pyridine-3-carbonitrile] had an IC50 against CCDC6-RET of 0.98 nM. Further, the IC50 against RET V804L was 0.49 nM. Further, on RET kinase, the IC50 stood at 0.37 nM. Besides, on KDR kinase, 6.9 nM corresponded to half-maximal inhibition (IC50) and the “Ratio (KDR/RET)” value is 19. Further, in data set [1], the IC50 came out at 4.1 nM. Besides, in data set [2], the mean residence time (MRT) was determined as 6 h, the Cmax came to 4680 ng/mL, the AUC(0-t) was 51600 ng·h/mL and the AUC(0-inf) worked out at 51900 ng·h/mL. Moreover, in data set [2], the half-life was 3.2 h and the Tmax came to 0.5 h.
